Data taken from patent publication US20130090317A1 (priority 2011, published 2013).
Where two headings read alike, the source gives them in different places.

What was measured:
[1] = test system: rats suffering from TBI; conditions: moderate to severe TBI, 16 mg/kg, 72 hours post-injury, p<0.05 (FIG. 1); cited from earlier work
[2] = test system: glutathione reductase; conditions: 72 hours post-injury, p<0.01 (FIG. 2); cited from earlier work
[3] = target: T1, classical progesterone receptor (PR) (Homo sapiens, UniProt P06401); conditions: cited from earlier work
T1 sequence (P06401 1-933): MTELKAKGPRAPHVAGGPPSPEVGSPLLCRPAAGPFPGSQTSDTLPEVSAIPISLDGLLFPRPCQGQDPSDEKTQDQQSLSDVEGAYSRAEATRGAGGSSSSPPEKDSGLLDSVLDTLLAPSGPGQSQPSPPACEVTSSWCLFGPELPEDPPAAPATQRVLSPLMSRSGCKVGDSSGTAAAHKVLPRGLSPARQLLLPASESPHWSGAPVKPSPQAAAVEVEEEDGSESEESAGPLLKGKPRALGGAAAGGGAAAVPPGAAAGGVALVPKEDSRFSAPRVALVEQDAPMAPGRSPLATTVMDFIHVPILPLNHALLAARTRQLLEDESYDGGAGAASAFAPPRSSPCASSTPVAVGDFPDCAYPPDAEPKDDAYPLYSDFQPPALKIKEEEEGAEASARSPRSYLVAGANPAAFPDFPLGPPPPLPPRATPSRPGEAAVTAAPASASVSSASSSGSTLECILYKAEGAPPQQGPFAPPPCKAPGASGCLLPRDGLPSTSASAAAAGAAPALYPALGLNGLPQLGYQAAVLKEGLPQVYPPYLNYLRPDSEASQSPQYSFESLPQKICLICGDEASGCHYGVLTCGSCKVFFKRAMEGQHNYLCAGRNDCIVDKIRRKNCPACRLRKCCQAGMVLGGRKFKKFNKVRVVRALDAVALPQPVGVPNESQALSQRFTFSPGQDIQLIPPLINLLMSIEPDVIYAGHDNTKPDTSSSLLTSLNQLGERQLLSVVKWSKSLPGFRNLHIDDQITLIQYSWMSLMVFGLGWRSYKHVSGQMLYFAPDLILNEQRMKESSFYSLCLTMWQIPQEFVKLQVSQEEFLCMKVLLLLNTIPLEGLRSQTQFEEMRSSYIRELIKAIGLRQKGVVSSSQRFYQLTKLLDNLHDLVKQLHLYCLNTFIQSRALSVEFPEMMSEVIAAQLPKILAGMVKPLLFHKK

[4] = test system: rats that have suffered a concussion (mTBI); assay: Morris Water Maze latency to platform in mTBI (concussion) model; type: in vivo, rat; conditions: versus vehicle-injured rats (FIG. 8)
[5] = test system: moderate to severe TBI patients; conditions: cited from earlier work
[6] = test system: severe TBI patients; conditions: six months; cited from earlier work

| SMILES | brain water content (measure of edema) [1] | anti-oxidant activity of glutathione reductase [2] | activation of the classical progesterone receptor (PR) [3] | latency to platform, Morris Water Maze ([4]; Prog administered post-acutely (15 minutes post)) | latency to platform, Morris Water Maze ([4]; Prog administered prophylactically (15 minutes prior)) | 30 days post-injury outcomes (Glasgow Outcome Scale-Extended, Disability Rating Scale) ([5]; moderate TBI patients) | 30 days post-injury outcomes (Glasgow Outcome Scale-Extended, Disability Rating Scale) ([5]; patients with severe brain injuries) | neurological outcomes long-term [6] |
| --- | --- | --- | --- | --- | --- | --- | --- | --- |
| CC(=O)[C@@H]1CC[C@@H]2[C@H]3CCC4=CC(=O)CC[C@@]4(C)[C@@H]3CC[C@]21C [ent-Prog, ent-progesterone] | normalizes brain water content | significantly increases the anti-oxidant activity of glutathione reductase compared to all other groups | does not activate the classical progesterone receptor (PR) |  |  |  |  |  |
| CC(=O)[C@H]1CC[C@H]2[C@@H]3CCC4=CC(=O)CC[C@]4(C)[C@H]3CC[C@]12C [Prog, progesterone] | normalizes brain water content |  |  | decreases latency to platform | decreases latency to platform | better outcomes | little measurable difference | better neurological outcomes long-term |
| CC(=O)[C@H]1CC[C@H]2[C@@H]3CC[C@H]4C[C@H](O)CC[C@]4(C)[C@H]3CC[C@]12C [ALLO, allopregnanolone] | normalizes brain water content |  |  |  |  |  |  |  |
